Patent US11124538B2, “Neuroactive steroids, compositions, and uses thereof” (Sage Therapeutics, Inc., priority 2015, dated 2021)
pIC50: −log10 of the molar value.

Target: [35S]-TBPS binding to rat brain cortical membranes in the presence of 5 μM GABA (GABA receptor complex)
Experiment: Steroid inhibition of [35S]-TBPS binding (radioligand displacement)
Settings: 3 nM [35S]-TBPS
Method: TBPS binding assays using rat brain cortical membranes in the presence of 5 μM GABA has been described (Gee et al, J. Pharmacol. Exp. Ther. 1987, 241, 346-353; Hawkinson et al, Mol. Pharmacol. 1994, 46, 977-985; Lewin, A. H et al., Mol. Pharmacol. 1989, 35, 189-194).
Briefly, cortices are rapidly removed following decapitation of carbon dioxide-anesthetized Sprague-Dawley rats (200-250 g). The cortices are homogenized in 10 volumes of ice-cold 0.32 M sucrose using a glass/teflon homogenizer and centrifuged at 1500×g for 10 min at 4° C. The resultant supernatants are centrifuged at 10,000×g for 20 min at 4° C. to obtain the P2 pellets. The P2 pellets are resuspended in 200 mM NaCl/50 mM Na—K phosphate pH 7.4 buffer and centrifuged at 10,000×g for 10 min at 4° C. This washing procedure is repeated twice and the pellets are resuspended in 10 volumes of buffer. Aliquots (100 μL) of the membrane suspensions are incubated with 3 nM [^35S]-TBPS and 5 μL aliquots of test drug dissolved in dimethyl sulfoxide (DMSO) (final 0.5%) in the presence of 5 μM GABA. The incubation is brought to a final volume of 1.0 mL with buffer. […] Following a 90 min incubation at room temp, the assays are terminated by filtration through glass fiber filters (Schleicher and Schuell No. 32) using a cell harvester (Brandel) and rinsed three times with ice-cold buffer. Filter bound radioactivity is measured by liquid scintillation spectrometry. Non-linear curve fitting of the overall data for each drug averaged for each concentration is done using Prism (GraphPad). […] The concentration of test compound producing 50% inhibition (IC50) of specific binding and the maximal extent of inhibition (Imax) are determined for the individual experiments with the same model used for the overall data and then the means±SEM.s of the individual experiments are calculated.
Various compounds are or can be screened to determine their potential as modulators of [^35S]-TBPS binding in vitro. These assays are or can be performed in accordance with the above discussed procedures.

| SMILES | pIC50 |
| --- | --- |
| COC[C@]12CC[C@@](C)(O)C[C@H]1CC[C@H]1[C@@H]3CC[C@H](C(=O)Cn4nc5cc(F)cc(F)c5n4)[C@@]3(C)CC[C@@H]12 [Compound 10] | > 8.00 |
| COC[C@]12CC[C@@](C)(O)C[C@H]1CC[C@H]1[C@@H]3CC[C@H](C(=O)Cn4nnc5cc(Cl)cnc54)[C@@]3(C)CC[C@@H]12 [Compound 12] | > 8.00 |
| COC[C@]12CC[C@@](C)(O)C[C@H]1CC[C@H]1[C@@H]3CC[C@H](C(=O)Cn4nc5cc(Cl)cnc5n4)[C@@]3(C)CC[C@@H]12 [Compound 13] | > 8.00 |
| COC[C@]12CC[C@@](C)(O)C[C@H]1CC[C@H]1[C@@H]3CC[C@H](C(=O)Cn4cc5ccc(F)cc5n4)[C@@]3(C)CC[C@@H]12 [Compound 14] | > 8.00 |
| COC[C@]12CC[C@@](C)(O)C[C@H]1CC[C@H]1[C@@H]3CC[C@H](C(=O)Cn4ncc5ccc(F)cc54)[C@@]3(C)CC[C@@H]12 [Compound 15] | > 8.00 |
| COC[C@]12CC[C@@](C)(O)C[C@H]1CC[C@H]1[C@@H]3CC[C@H](C(=O)Cn4nnc5ccccc54)[C@@]3(C)CC[C@@H]12 [Compound 18] | > 8.00 |
| COC[C@]12CC[C@@](C)(O)C[C@H]1CC[C@H]1[C@@H]3CC[C@H](C(=O)Cn4cc(SC)cn4)[C@@]3(C)CC[C@@H]12 [Compound 21] | > 8.00 |
| COC[C@]12CC[C@@](C)(O)C[C@H]1CC[C@H]1[C@@H]3CC[C@H](C(=O)Cn4nc5ccc(Cl)c(F)c5n4)[C@@]3(C)CC[C@@H]12 [Compound 24] | > 8.00 |
| COC[C@]12CC[C@@](C)(O)C[C@H]1CC[C@H]1[C@@H]3CC[C@H](C(=O)Cn4nnc5ccc(OC)cc54)[C@@]3(C)CC[C@@H]12 [Compound 25] | > 8.00 |
| COC[C@]12CC[C@@](C)(O)C[C@H]1CC[C@H]1[C@@H]3CC[C@H](C(=O)Cn4nnc5cc(OC)ccc54)[C@@]3(C)CC[C@@H]12 [Compound 26] | > 8.00 |
| COC[C@]12CC[C@@](C)(O)C[C@H]1CC[C@H]1[C@@H]3CC[C@H](C(=O)Cn4nc5ccc(OC)cc5n4)[C@@]3(C)CC[C@@H]12 [Compound 27] | > 8.00 |
| COC[C@]12CC[C@@](C)(O)C[C@H]1CC[C@H]1[C@@H]3CC[C@H](C(=O)Cn4nnc5c(OC)cccc54)[C@@]3(C)CC[C@@H]12 [Compound 28] | > 8.00 |
| COC[C@]12CC[C@@](C)(O)C[C@H]1CC[C@H]1[C@@H]3CC[C@H](C(=O)Cn4nnc5cccc(OC)c54)[C@@]3(C)CC[C@@H]12 [Compound 29] | > 8.00 |
| COC[C@]12CC[C@@](C)(O)C[C@H]1CC[C@H]1[C@@H]3CC[C@H](C(=O)Cn4nc5cccc(OC)c5n4)[C@@]3(C)CC[C@@H]12 [Compound 30] | > 8.00 |
| COC[C@]12CC[C@@](C)(O)C[C@@H]1CC[C@H]1[C@@H]3CC[C@H](C(=O)Cn4cc(SC)cn4)[C@@]3(C)CC[C@@H]12 [Compound 34] | 7.30 to 8.00 |
| COC[C@]12CC[C@@](C)(O)C[C@@H]1CC[C@H]1[C@@H]3CC[C@H](C(=O)Cn4cc([S+](C)[O-])cn4)[C@@]3(C)CC[C@@H]12 (stereo partly shown) [Compound 35] | < 6.30 |
| COC[C@]12CC[C@@](C)(O)C[C@H]1CC[C@H]1[C@@H]3CC[C@H](C(=O)Cn4cc5ccncc5n4)[C@@]3(C)CC[C@@H]12 [Compound 46] | 7.30 to 8.00 |
| COC[C@]12CC[C@@](C)(O)C[C@@H]1CC[C@H]1[C@@H]3CC[C@H](C(=O)Cn4nnc5c(F)c(Cl)ccc54)[C@@]3(C)CC[C@@H]12 [Compound 51] | > 8.00 |
| CC(C)OC[C@]12CC[C@@](C)(O)C[C@H]1CC[C@H]1[C@@H]3CC[C@H](C(=O)Cn4nnc5c(F)c(F)ccc54)[C@@]3(C)CC[C@@H]12 [Compound 68] | > 8.00 |
| CC(C)OC[C@]12CC[C@@](C)(O)C[C@H]1CC[C@H]1[C@@H]3CC[C@H](C(=O)Cn4nnc5ccc(F)c(F)c54)[C@@]3(C)CC[C@@H]12 [Compound 69] | > 8.00 |
| CC(C)OC[C@]12CC[C@@](C)(O)C[C@H]1CC[C@H]1[C@@H]3CC[C@H](C(=O)Cn4nc5ccc(F)c(F)c5n4)[C@@]3(C)CC[C@@H]12 [Compound 70] | > 8.00 |
| CC(C)OC[C@]12CC[C@@](C)(O)C[C@H]1CC[C@H]1[C@@H]3CC[C@H](C(=O)Cn4ncnn4)[C@@]3(C)CC[C@@H]12 [Compound 72] | > 8.00 |
| COC[C@]12CC[C@@](C)(O)C[C@@H]1CC[C@H]1[C@@H]3CC[C@H](C(=O)Cn4ncc(C(=O)O)n4)[C@@]3(C)CC[C@@H]12 [Compound 81] | < 6.30 |
| COC[C@]12CC[C@@](C)(O)C[C@@H]1CC[C@H]1[C@@H]3CC[C@H](C(=O)Cn4cc(C(=O)O)nn4)[C@@]3(C)CC[C@@H]12 [Compound 82] | < 6.30 |
| COC[C@]12CC[C@@](C)(O)C[C@@H]1CC[C@H]1[C@@H]3CC[C@H](C(=O)Cn4ncc(CO)n4)[C@@]3(C)CC[C@@H]12 [Compound 85] | < 6.30 |
